Laboratory results as given in patent publication US20090010886A1, “Method for the Treatment of Myeloproliferative Diseases Using(+)-2-[1-(3-Ethoxy-4-Methoxyphenyl)-2- Methylsulfonylethyl]-4- Acetylaminoisoindoline-1,3- Dione” (CELGENE CORPORATION, priority 2004, published 2009).

Assay: cardiovascular and respiratory function in anesthetized dogs (safety pharmacology)
Format: in vivo
Settings: anesthetized Beagle dogs, three ascending doses 400, 800 and 1,200 mg/kg/day, infusion through the jugular vein
Method: The pharmacological properties of 3-(3,4-dimethoxy-phenyl)-3-(1-oxo-1,3-dihydro-isoindol-2-yl)-propionamide, including activity comparisons with thalidomide, are characterized in in vitro studies. Studies examine the effects of 3-(3,4-dimethoxy-phenyl)-3-(1-oxo-1,3-dihydro-isoindol-2-yl)-propionamide on the production of various cytokines. In addition, a safety pharmacology study of 3-(3,4-dimethoxy-phenyl)-3-(1-oxo-1,3-dihydro-isoindol-2-yl)-propionamide is conducted in dogs and the effects of the compound on ECG parameters are examined further as part of three repeat-dose toxicity studies in primates.
The effects of 3-(3,4-dimethoxy-phenyl)-3-(1-oxo-1,3-dihydro-isoindol-2-yl)-propionamide on cardiovascular and respiratory function are investigated in anesthetized dogs. Two groups of Beagle dogs (2/sex/group) are used. One group receives three doses of vehicle only and the other receives three ascending doses of 3-(3,4-dimethoxy-phenyl)-3-(1-oxo-1,3-dihydro-isoindol-2-yl)-propionamide (400, 800, and 1,200 mg/kg/day). In all cases, doses of 3-(3,4-dimethoxy-phenyl)-3-(1-oxo-1,3-dihydro-isoindol-2-yl)-propionamide or vehicle are successively administered via infusion through the jugular vein separated by intervals of at least 30 minutes. […]

Compound: COc1ccc(C(CC(N)=O)N2Cc3ccccc3C2=O)cc1OC (stereo not shown) [3-(3,4-Dimethoxy-phenyl)-3-(1-oxo-1,3-dihydro-isoindol-2-yl)-propionamide]
- cardiovascular and respiratory changes compared to the vehicle control group: minimal
